Data as given in US7253154B2, “Substituted thiazolopyrimidines as xanthine oxidase inhibitors” (Nippon Chemiphar Co., Ltd., priority 2001, dated 2007).

Tests used:
[1] = molecular target: T1, Cow milk Xanthine Oxidase (Bos taurus, UniProt P80457); assay: Xanthine oxidase inhibiting action, in vitro test (oxidation of xanthine, absorbance OD 290); type: biochemical; settings: Cow milk xanthine oxidase (Roche), xanthine substrate, 50 mM phosphate buffer pH 7.5, 37° C., 15 min
T1 construct: Cow milk Xanthine Oxidase (Roche); purchased Roche; host or cells: cow milk
Experimental: Pharmacological Experiment 1 (In Vitro Test)
1. Preparation of Test Sample
250 gL of each of the solutions of the test compound having different concentrations was added to 1 mL of a solution of Xanthine (SIGMA, 300 µM) in the 50 mM phosphor buffer (pH 7.5). The mixture was then pre-incubated at 37° C. for 10 min. Subsequently, to the pre-incubated mixture was added […] of Cow milk Xanthine Oxidase (Roche) diluted with the 50 mM phosphate buffer (pH 7.5) to give a solution of 30 mU concentration. The mixture was then kept at 37° C. for 15 min for performing a reaction. The reaction was terminated by addition of 1N hydrochloric acid. Subsequently, the absorbance ([…]) was measured by means of a spectrophotometer (HITACHI U-2000), to obtain the inhibition ratio.
The inhibition ratio was calculated according to the following formula: Inhibition ratio(%)=[1−(B−C)/(A−C)]×100
B: absorbance measured in the case of using test compound

xanthine oxidase = molecular target: T2, xanthine oxidase (Mus musculus, UniProt Q00519); assay: In vivo test: uric acid value in plasma of mouse after oral administration; settings: ICR mouse, 3 mg/10 mL/kg single oral administration, blood collected after one hour
T2 construct: ICR mouse (Japan Charles River Co., Ltd., 6 W) was employed as test animal; from tissue; host or cells: living ICR mouse (whole animal; plasma uric acid measured)
Source text: The xanthine oxidase inhibiting action was further confirmed in vivo tests by measuring the uric acid concentration in a plasma obtained from mouse into which the compound of the invention had been orally administered. See Example 1-B, Table 21.
Pharmacological Experiment 2 (In Vivo Test)
1. Test Animals, and Grouping
ICR mouse (Japan Charles River Co., Ltd., 6 W) was employed as test animal. One group comprised mice, and a vehicle control group was set for each experiment.
2. Preparation and Administration of the Test Compound
The test compound was suspended in aqueous […] methylcellulose solution to for administration.
Dosage is 3 mg/10 mL/kg for each of the control groups and all test groups. The administration was made by single oral administration.
3. Procedure of Experiment
The test compound was orally administered once, and the whole blood was collected from main artery in the presence of heparin after one hour. From the collected whole blood was separated plasma in the conventional manner, and the plasma was subjected to measurement of uric acid value by the enzyme method by means of an automatic analytical apparatus (HITACHI 7060E).
The inhibition ratio was calculated according to the following formula: Inhibition ratio(%)=[…]
A: average uric acid value in plasma of the group into which the test compound was administered.
B: average uric acid value in plasma of the vehicle control group

T2 sequence (Q00519 whole entry): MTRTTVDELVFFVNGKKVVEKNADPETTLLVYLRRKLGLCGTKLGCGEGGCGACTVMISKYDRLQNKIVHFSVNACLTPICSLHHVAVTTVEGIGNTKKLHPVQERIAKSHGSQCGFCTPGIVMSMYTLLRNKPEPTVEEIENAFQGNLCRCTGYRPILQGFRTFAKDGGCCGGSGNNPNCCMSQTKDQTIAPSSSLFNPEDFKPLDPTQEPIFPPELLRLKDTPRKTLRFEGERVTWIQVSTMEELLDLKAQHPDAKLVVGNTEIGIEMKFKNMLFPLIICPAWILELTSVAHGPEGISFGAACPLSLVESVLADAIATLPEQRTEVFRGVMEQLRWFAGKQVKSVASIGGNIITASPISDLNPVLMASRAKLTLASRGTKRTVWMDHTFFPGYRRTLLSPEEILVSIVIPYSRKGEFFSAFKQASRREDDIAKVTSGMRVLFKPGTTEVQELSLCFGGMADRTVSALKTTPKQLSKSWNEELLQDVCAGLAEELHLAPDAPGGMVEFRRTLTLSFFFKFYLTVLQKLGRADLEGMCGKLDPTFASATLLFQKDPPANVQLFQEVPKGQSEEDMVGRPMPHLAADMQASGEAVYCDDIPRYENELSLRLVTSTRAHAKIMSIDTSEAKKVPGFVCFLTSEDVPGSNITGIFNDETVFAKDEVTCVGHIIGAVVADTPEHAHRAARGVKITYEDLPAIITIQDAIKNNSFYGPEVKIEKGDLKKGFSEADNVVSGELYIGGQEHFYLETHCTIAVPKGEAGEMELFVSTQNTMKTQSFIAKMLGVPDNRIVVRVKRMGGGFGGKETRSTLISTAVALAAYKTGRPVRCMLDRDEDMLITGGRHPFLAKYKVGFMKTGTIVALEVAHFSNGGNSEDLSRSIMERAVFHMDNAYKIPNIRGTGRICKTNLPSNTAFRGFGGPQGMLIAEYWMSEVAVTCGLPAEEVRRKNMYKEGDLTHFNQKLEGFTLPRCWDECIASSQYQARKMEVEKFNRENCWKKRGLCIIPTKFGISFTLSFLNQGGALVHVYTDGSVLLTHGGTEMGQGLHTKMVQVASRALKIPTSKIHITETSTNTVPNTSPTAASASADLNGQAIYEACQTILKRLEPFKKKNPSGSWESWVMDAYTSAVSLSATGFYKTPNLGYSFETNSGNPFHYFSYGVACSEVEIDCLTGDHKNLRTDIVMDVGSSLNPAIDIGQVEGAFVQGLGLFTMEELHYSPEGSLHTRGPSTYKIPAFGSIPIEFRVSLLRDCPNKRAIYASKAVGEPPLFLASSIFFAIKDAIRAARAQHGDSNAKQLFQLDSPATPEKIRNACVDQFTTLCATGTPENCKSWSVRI
T1 sequence (P80457 whole entry): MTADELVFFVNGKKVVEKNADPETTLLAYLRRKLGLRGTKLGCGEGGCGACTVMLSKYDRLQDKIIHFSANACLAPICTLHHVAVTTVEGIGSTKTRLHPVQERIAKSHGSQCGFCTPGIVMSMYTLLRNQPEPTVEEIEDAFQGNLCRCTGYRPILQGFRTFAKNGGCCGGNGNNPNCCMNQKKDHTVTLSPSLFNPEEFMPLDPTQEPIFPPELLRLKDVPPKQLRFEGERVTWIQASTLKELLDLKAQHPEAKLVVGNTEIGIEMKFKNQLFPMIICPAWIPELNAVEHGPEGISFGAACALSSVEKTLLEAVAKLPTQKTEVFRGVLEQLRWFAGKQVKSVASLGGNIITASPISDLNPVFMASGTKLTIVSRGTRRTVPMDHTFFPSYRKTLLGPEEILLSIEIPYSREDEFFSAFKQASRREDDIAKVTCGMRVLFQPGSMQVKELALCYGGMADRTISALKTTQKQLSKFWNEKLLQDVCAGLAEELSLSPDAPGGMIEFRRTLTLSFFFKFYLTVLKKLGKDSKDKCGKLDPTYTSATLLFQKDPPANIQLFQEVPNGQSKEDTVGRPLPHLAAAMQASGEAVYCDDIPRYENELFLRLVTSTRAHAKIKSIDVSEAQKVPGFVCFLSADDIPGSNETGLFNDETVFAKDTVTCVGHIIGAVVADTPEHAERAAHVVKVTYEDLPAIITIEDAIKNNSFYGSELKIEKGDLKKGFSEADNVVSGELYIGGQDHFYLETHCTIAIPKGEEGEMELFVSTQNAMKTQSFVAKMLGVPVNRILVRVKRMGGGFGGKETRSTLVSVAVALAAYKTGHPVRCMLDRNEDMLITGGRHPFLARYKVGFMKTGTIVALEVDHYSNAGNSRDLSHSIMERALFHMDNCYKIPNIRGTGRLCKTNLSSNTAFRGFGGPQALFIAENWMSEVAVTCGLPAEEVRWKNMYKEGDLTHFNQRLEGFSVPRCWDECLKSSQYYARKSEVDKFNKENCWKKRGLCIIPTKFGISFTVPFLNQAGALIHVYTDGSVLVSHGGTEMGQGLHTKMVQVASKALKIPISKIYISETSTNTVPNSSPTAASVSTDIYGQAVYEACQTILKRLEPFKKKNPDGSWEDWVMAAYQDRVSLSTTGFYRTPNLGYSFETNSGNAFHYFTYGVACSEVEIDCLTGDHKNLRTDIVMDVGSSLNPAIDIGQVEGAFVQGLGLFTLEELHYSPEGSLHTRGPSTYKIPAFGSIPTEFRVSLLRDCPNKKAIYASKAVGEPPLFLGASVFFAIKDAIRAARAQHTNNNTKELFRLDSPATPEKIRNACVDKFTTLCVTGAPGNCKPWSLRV

Structure (SMILES) | IC50 [1] | Inhibition ratio (plasma uric acid value vs vehicle control group) (xanthine oxidase)
CC(C)COc1ccc(-c2nc3ncnc(Cl)c3[nH]2)cc1[N+](=O)[O-] [Example 1-A, 8-(4-Isobutoxy-3-nitrophenyl)-6-chloropurine] | 63.2 nM | –
CC(C)COc1ccc(-c2nc3c(N)ncnc3o2)cc1[N+](=O)[O-] [Example 1-B, 6-amino-8-(4-isobutoxy-3-nitrophenyl)oxazolo[4,5-d]pyrimidine] | 44.8 nM | 60.7%
CC(C)COc1ccc(-c2nc3ncnc(O)c3[nH]2)cc1[N+](=O)[O-] [Example 2, 8-(4-Isobutoxy-3-nitrophenyl)-6-hydroxypurine] | 11.1 nM | –
CC(C)COc1ccc(-c2nc3ncnc(N)c3[nH]2)cc1[N+](=O)[O-] [Example 6, 6-Amino-8-(4-isobutoxy-3-nitrophenyl)purine] | 75.9 nM | 63.8%
CC(C)COc1ccc(-c2nc3c(O)cccc3[nH]2)cc1[N+](=O)[O-] [Example 7, 4-Hydroxy-2-(4-isobutoxy-3-nitrophenyl)-1H-benzimidazole] | 102 nM | –
CC(C)COc1ccc(-c2nc3cccc(C(=O)O)c3o2)cc1[N+](=O)[O-] [Example 8, 2-(4-Isobutoxy-3-nitrophenyl)benzoxazole-7carboxylic acid] | 18.6 nM | 56.8%
CC(C)COc1ccc(-c2nc3ccncc3[nH]2)cc1[N+](=O)[O-] [Example 9, 2-(4-Isobutoxy-3-nitrophenyl)-3H-imidazo[4,5-c]pyridine] | 58.4 nM | –
CC(C)COc1ccc(-c2nc3cccc(C(=O)O)c3s2)cc1C#N [Example 10, 2-(3-Cyano-4-isobutyloxyphenyl)-1,3-benzothiazole-7-carboxylic acid] | 50 nM | 56.1%
CC(C)COc1ccc(-c2nc3c(C(=O)O)cccc3[nH]2)cc1C#N [Example 11, 2-(3-Cyano-4-isobutyloxyphenyl)benzimidazole-7-carboxylic acid] | 22.3 nM | 51.4%
CC(C)COc1ccc(-c2nc3cccc(O)c3s2)cc1C#N [Example 12, 2-(3-Cyano-4-isobutyloxyphenyl)-7-hydroxy 1,3-benzothiazole] | 161 nM | –
